Experimental data as given in patent US20250092058A1 (priority 2018, published 2025).

Tests used:
[1] = Oral PK in SW620/HT29 tumor-bearing SCID mice; conditions: 1.5 mg/kg oral, HPβCD aqueous suspension
Procedure: Tumor tissues and blood samples were collected at a series of time points of 30 minutes, 1 hour, 4 hours, 12 hours and 24 hours. Each tumor tissue was collected in a tube and immediately frozen with liquid nitrogen; each blood sample was collected in a Li-Heparin LH/1.3 tube ([sequence]), and plasma was recovered by centrifugation (1500 rpm×2 minutes). The collected plasma from each blood sample was transferred into a new tube and immediately frozen in liquid nitrogen. Liquid nitrogen-frozen specimens were then transferred to an −80° C. freezer for analysis.
Drug in plasma is extracted with acidified methanol. An 800 μL aliquot of ice-cold acidified methanol is added to 200 μL plasma and vortexed for 15 sec. […] An 800 μL aliquot of ice-cold acidified methanol is added to 200 μL homogenized tissue and then vortexed for 1 min. The samples are then centrifuged at 13,000 rpm for 5 min. and the supernatant is transferred to a clean 13×100 mm glass tube. Samples are dried under vacuum and stored at −20° C. until analysis. […] Analysis is carried out using an Acquity UPLC system with Fluorescence detection interfaced with Empower software. […] The fluorescence detector is set at the following Excitation (Ex) and Emissions (Em) wavelengths: Ex 370 nm Em 510 nm. […] QC samples are analyzed with each curve.

PDX14244 = assay: Pancreatic cancer PDX14244 in SCID mice; format: in vivo; conditions: 5 mg/kg ip qw×4
Procedure: Human pancreatic cancer patient-derived xenograft (PDX) tumor mouse model and treatment. Experiments followed the IACUC-approved mouse protocol. Briefly, human PDAC PDX tumors maintained on SCID mice were isolated, and a piece of non-necrotic tumor tissues (30-40 mg) were subcutaneously transplanted into the flank area of female SCID mice. […] In this study, we used the timesaving intraperitoneal (ip) route for drug administration. […] The formulation process was described in detail in our previous patent (PCT/US2011/058558). […] Tumor length (L) and width (W) were measured using digital vernier calipers 1-3 times per week until the end of experimental studies. The tumor volume (v) was calculated using the formula: v=0.5 (L×W^2). Then the tumor size was divided by the day 0 tumor size as percentage tumor size versus day 0. The mean tumor volume ± standard deviation (SD) at each time point was derived from 5 mice in each group. The tumor curves were made using Sigma Plot software.
It has been recently documented that pancreatic cancer PDXs retain active paracrine/Hedgehog signaling, and desmoplasia is active in PDX tumor mouse models.

A2780CP70-GFPcODC cells = assay: GFPcODC drug-resistant cell tracking, A2780CP; format: cell-based, human; conditions: 10 nM and 100 nM
Excerpt: Generation of A2780-GFPcODC, A2780CP-GFPcODC and PANC1GFPcODC cells and fluorescence microscopy to detect stem-like and drug resistant green cells. The retroviral expression vector pQCXIN-ZsGreen-cODC (ornithine decarboxylase), containing a green fluorescence marker, was kindly provided by Dr. Frank Pajonk (Vlashi E, et al., In vivo imaging, tracking, and targeting of cancer stem cells. J Natl Cancer Inst. 2009; 101: 350-9). The retroviral particles collected from packaging cells that transfected with the above vector were infected into A2780, A2780CP and PANC1 cells, respectively. The transfected cell pool was used for experiments. The transfected cells were treated with and without cisplatin or FL118 alone or in combination for defined times. Cell images were acquired digitally using the Olympus IX73 Inverted Score s (Olympus). Percentages of living cells were obtained from the average of the total cells counted from 10 microscopic fields.
To test this, we used a novel approach developed in Dr. Pajonk's lab for the live tracking of drug resistant cells (Vlashi E, et al., In vivo imaging, tracking, and targeting of cancer stem cells. J Natl Cancer Inst. 2009; 101: 350-9). This approach takes advantage of reduced 26S proteasome activity of drug resistant cells. […]

[2] = system: survivin, Mcl-1, XIAP, cIAP2; assay: Western blots of anti-/pro-apoptotic proteins in PANC1 and Mia2; format: cell-based, human; conditions: 16 h to 48 h, dose-dependent
Procedure: Western blotting/Immunoblotting. […] Fifty μg total protein from each sample were heated at 95° C. for 5 minutes after mixing with equal volume of 2×SDS loading buffer. Samples were separated on 12-15% SDS-polyacrylamide gel electrophoresis (SDS-PAGE) gels and electrotransferred to Pure Nitrocellulose Membranes (Bio-Rad, Hercules, CA). The membrane was then blocked in 5% skim milk in TBS-T buffer (20 mM Tris/HCl pH 7.5, 0.137 M NaCl, and 0.1% Tween 20) at room temperature for 2-3 hours. Next, the membrane was incubated with different primary antibodies in TBS-T containing 5% BSA overnight at 4° C. in the range of dilutions from 1:500 to 1:2000. After washing with TBS-T, the membrane was incubated in TBS-T buffer containing 5% skim milk and corresponding secondary antibody (1:5000) for 45-60 minutes at room temperature with shaking. Protein of interest was detected using Western Lightning Plus—ECL (Perkin Elmer, Waltham, MA) and visualized by various times (3-120 seconds) of exposure. Actin was detected as the internal control to normalize total protein loading for each sample.

ABCG2 and Pgp = assay: Efflux transporter substrate studies; format: in vitro ADME
[3] = Stability of FL118 formulated suspension; conditions: no observable change in antitumor efficacy vs freshly prepared
HeLa = format: cell-based, human; conditions: Table 13; MTT; HeLa cervical cancer
CRC PDX27454 tumors = conditions: spray-dried FL118-HPβCD powder in saline with 5% PG, p.o. weekly ×4, half MTD
Procedure: Colorectal cancer (CRC) patient-derived xenograft (PDX) models were used to evaluate their in vivo antitumor activity. […] Treatments were administered weekly for four weeks on days 0, 7, 14 and 21 and tumor volumes and individual body weights were monitored.
Human xenograft tumors used. In this invention disclose, human SW620 (colorectal), HT29 (colorectal) and HT-3 (retinoblastoma) cancer cell line-established xenograft tumors were used. Human tumor cell line-derived xenograft tumors are initially established by subcutaneously injecting 2-5×10^6 cultured cancer cells in a volume of 100-150 p L medium into the flank area of severe combined immunodeficiency (SCID) mice. The derived tumors are then passed a couple of generations in mice by transplanting 30-50 mg non-necrotic tumor mass via a trocar for experiments or maintenance. […] PDX tumors were originally established on severe Combined Immunodeficiency (SCID) mice from pancreatic and colorectal cancer patient tumor tissues obtained from metastatic sites of the disease in the clinic.
Specifically, PDX tumors were originally established on severe Combined Immunodeficiency (SCID) mice from pancreatic and colorectal cancer patient tumor tissues obtained from metastatic sites of the disease in the clinic. […] The vehicle is the same think aqueous suspension without drug. Experimental SCID mice were subcutaneously implanted with 30-40 mg individual PDX tumors (isolated from maintenance mice) at the flank area for PDX27454 of SCID mice. Treatment with vehicle or a drug of 7Q-series (2) was initiated 7-14 days after the transplanted tumors reached 100-200 mm^3 (designated day 0). The animal model of PDX tumors was orally treated weekly for 4 times (one cycle/course, as shown with black arrows) or only one time drug administration.

HCT116 = format: cell-based, human; conditions: Table 13; MTT; HCT116 colorectal cancer
[4] = BALB/cj mice, FL118 MTD 10 mg/kg oral qw×4
[5] = BALB/cj mouse serum, FL118 MTD 10 mg/kg oral qw×4

## CC[C@@]1(O)C(=O)OCc2c1cc1n(c2=O)Cc2cc3cc4c(cc3nc2-1)OCO4 [FL118, 10,11-methylenedioxy-camptothecin]
[1]
  concentration in tumor versus serum: many folds higher than those in serum
PDX14244
  antitumor efficacy: able to eliminate these PDX tumors after one cycle of treatment
A2780CP70-GFPcODC cells
  decrease of GFPcODC-positive drug-resistant cell population: more than 50%
[2]
  expression of antiapoptotic proteins (XIAP, cIAP2, Mcl-1 or survivin): differentially modulates the expression of antiapoptotic proteins
10 mg/kg oral qw×4
  tolerability: well tolerated
[4]
  BASO: 0 K/μL
  EOS: 0.01-0.1 K/μL
  HCT: 26.1-30.9%
  HGB: 8.9 to 10.8 g/dL
  LYM: 0.06-0.17 K/μL
  MCH: 14.8 to 15.3 pg
  MCHC: 33.7 to 36 g/dL
  MCV: 41.9 to 43.9 fL
  MONO: 0.03-0.12 K/μL
  MPV: 8.1 to 8.6 fL
  NEUT: 0.03-0.5 K/μL
  PDW: 13.8 to 14.4 fL
  PLT: 487-1004 K/μL
  RBC: 6.01-7.04 M/μL
  RDW-SD: 23 to 24.8 fL
  RET: 0.67-4.49 K/μL
  WBC: 0.33-0.6 K/μL
[5]
  ALB: 1.7 to 2.2 g/dL
  ALP: 52-105 U/L
  ALT: 33-58 U/L
  BUN: 16 to 19 mg/dL
  CHOL: 91 to 109 mg/dL
  CREA: ≤0.1 mg/dL
  Ca: 8.1 to 9.4 mg/dL
  GLU: 87 to 185 mg/dL
  PHOS: 10 to 13.3 mg/dL
  TBIL: ≤0.1 to 0.3 mg/dL
  TP: 3.4 to 4.1 g/dL
≥12.5 mg/kg oral qw×4
  body weight loss: > 20%
ABCG2 and Pgp
  substrate of ABCG2 and Pgp: not a substrate of ABCG2 and Pgp
[3]
  stability of formulated suspension for oral administration: more than 12 months
HeLa
  IC50: 34.7 ± 9.9 nM
CRC PDX27454 tumors
  antitumor activity: great antitumor activity
  toxicity (mouse body weight changes): no toxicity at all
HCT116
  IC50: 66.5 ± 11.2 nM
